How the values were obtained:
PNPLA1 = molecular target: T1, PNPLA1 (Homo sapiens, UniProt Q8N8W4); test: PNPLA1-dependent ω-O-acylceramide formation in HEK293T cells; format: cell-based; conditions: NG-497 40 µM, Orlistat 40 µM
T1 construct: expressed in transfected cells; host or cells: HEK293T cells
Experimental: Fig. S3: Investigation of off-target effects of NG-497 on structurally and functionally related lipid hydrolases. (a) PNPLA1-dependent formation of acylceramides was monitored in a cell-based assay in HEK293T cells. Experiments were performed in the presence or absence of NG-497 (40 µM) and the non-selective lipase inhibitor Orlistat (40 µM). Orlistat, but not NG-497, inhibited PNPLA1/CGI-58-dependent ω-O-acylceramide formation. (b-h) Enzymes were overexpressed in Expi293 cells and cell lysates were used as source of enzymatic activity. […] Experiments were performed in the presence or absence of NG-497 (100 µM) and the formation of reaction products was monitored. […]
Data were calculated relative to the basal activity detected in LacZ-transfected controls. […]
LPL activity was inhibited using an anti-LPL antibody. All data are presented as mean ± S.D. Statistical significance was determined via ANOVA followed by Bonferroni post hoc test ( ***, p < 0.001). […]
Released free fatty acids were quantified via NEFA C kit (Fujifilm Wako Chemicals, Neuss, Germany) and release of p-nitrophenol was measured at 405 nm. […] Cellular ω-O-acylceramide formation was monitored using [1-14C]linoleic acid as tracer. […] The activity of purified human pancreatic lipase (MilliporeSigma #SRE0028) was determined as previously described7 in the presence or absence of NG-497 (100µM) or Orlistat (20 µM). […]

human ATGL = molecular target: T2, human ATGL (Homo sapiens, UniProt Q96AD5); test: TAG hydrolase assay, lysates of Expi293 cells overexpressing ATGL, purified CGI-58, radiolabeled triolein; format: biochemical; conditions: inhibition of TAG hydrolase activity of human ATGL, Expi293 lysates, purified CGI-58, radiolabeled triolein
T2 construct: host or cells: Expi293 cells, crude lysate
T2 sequence (Q96AD5 1-504): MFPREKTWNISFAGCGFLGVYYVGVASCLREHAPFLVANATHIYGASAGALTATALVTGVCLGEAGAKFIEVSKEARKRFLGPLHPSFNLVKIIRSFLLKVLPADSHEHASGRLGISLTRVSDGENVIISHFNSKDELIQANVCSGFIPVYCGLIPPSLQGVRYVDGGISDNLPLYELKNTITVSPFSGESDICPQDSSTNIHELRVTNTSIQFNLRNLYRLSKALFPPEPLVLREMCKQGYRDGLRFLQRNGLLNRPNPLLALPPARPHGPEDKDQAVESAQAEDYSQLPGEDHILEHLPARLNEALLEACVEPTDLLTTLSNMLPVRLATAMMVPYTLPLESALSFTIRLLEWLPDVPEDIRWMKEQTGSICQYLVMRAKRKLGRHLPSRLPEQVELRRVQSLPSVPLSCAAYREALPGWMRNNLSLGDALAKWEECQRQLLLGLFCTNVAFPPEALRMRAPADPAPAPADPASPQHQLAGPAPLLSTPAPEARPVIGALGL
Source text: We previously developed Atglistatin (Ai), a selective inhibitor of mouse ATGL,[31],[32] which is ineffective against human ATGL.[17] Ai acts as a competitive inhibitor targeting the minimal active domain of ATGL ranging from aa 1–254.[33] This domain is highly conserved in different mammalian species (∼90% identity, Table 1) and comprises the patatin-like domain, eponymous for all members of the patatin-like phospholipase domain-containing (PNPLA) protein family.[34] We first investigated the species selectivity of Ai by performing TAG hydrolase assays[35] with lysates from Expi293 cells expressing ATGL orthologues of different species. The activity of ATGL is strongly stimulated by the co-activator protein comparative gene identification-58 (CGI-58, also known as α/β hydrolase domain containing 5, ABHD5)[36] and can be suppressed by the inhibitory protein G0/G1 switch 2 (G0S2).[37] We therefore determined ATGL activity in the presence and absence of mouse CGI-58, mouse G0S2, and Ai. As shown in Figure 1a–i, all ATGL orthologues were expressed, enzymatically active, stimulated by mouse CGI-58, and inactivated by mouse G0S2. Ai inhibited mouse (Figure 1a), rat (Figure 1b), goat (Figure 1c), dog (Figure 1e), and marmoset ATGL (Figure 1f), but not pig (Figure 1d), rhesus monkey (Figure 1g), or human ATGL (Figure 1h).
To develop an inhibitor for human ATGL, we screened compounds synthesized in the course of the development of Ai.[31] Screenings were performed in the presence of purified CGI-58 using cell lysates of Expi293 cells overexpressing ATGL as a source of enzymatic activity and radiolabeled triolein as substrate as described above (Figure 1). […] In an iterative optimization process, which encompassed the synthesis and testing of >150 compounds (not shown), we varied the nature of the top aryl ring (Figure 2a). Replacement of the top phenyl group with a pyridine moiety (compound 2) led to a significant improvement in inhibitor efficacy (IC50 = 3 μM), which we interpret as a result from a smaller angle between the 1,3-arrangement of the aryl- and the ester-substituents due to the shorter C–N bond length within the pyridine group. […] The introduction of a methoxy residue at this position finally led to compound NG-497 showing an IC50 value of 1 μM.
Experimental details, materials, and methods
Expression of recombinant ATGL constructs and preparation of cell lysates. Expi293 cells were cultivated in Expi293 Expression Medium (GIBCO, Thermo Fisher Scientific, Waltham, USA) at standard conditions (37°C, 5% CO2, 95% humidified atmosphere, 125 rpm). DNA constructs containing ATGL from different species and chimeric ATGL variants in pcDNA3.1(+)myc-His C Vector were obtained from BioCat GmbH (Heidelberg, Germany). Cells were transfected with ExpiFectamine293 Transfection Kit (GIBCO) in Opti-Mem reduced serum medium (GIBCO) according to the manufacturer’s instructions. After 48 h, cells were harvested by centrifugation and washed three times with PBS. Cells were disrupted in buffer A (0.25 M sucrose, 1 mM EDTA, 1 mM dithiothreitol, 20µg/ml leupeptin, 2 µg/ml antipain, 1 µg/ml pepstatin, pH 7.0) by sonication (Virsonic 475, Virtis, Gardiner, USA). Nuclei and debris were removed by centrifugation at 1,000 g and 4°C for 10 min. Protein concentrations were determined using Bio-Rad protein assay (Bio-Rad 785, Bio-Rad Laboratories, Munich, Germany) using BSA as standard.
Expression and purification of mouse CGI-58. CGI-58 was expressed and purified as described 1. In brief, the coding sequence of mouse Cgi-58 was cloned into pHis-Sumo and co-transformed with the plasmid pTf16 expressing the chaperone Tig into E. coli BL21(DE3). Cells were cultured overnight at 37°C and 180 rpm in the presence of 40 µg/ml kanamycin and 34 µg/ml chloramphenicol. Thereafter, cells were transferred into fresh LB medium, grown until OD600 of 0.6, and expression was induced […]
by the addition of 0.5 mM IPTG. […]

T1 sequence (Q8N8W4 whole entry): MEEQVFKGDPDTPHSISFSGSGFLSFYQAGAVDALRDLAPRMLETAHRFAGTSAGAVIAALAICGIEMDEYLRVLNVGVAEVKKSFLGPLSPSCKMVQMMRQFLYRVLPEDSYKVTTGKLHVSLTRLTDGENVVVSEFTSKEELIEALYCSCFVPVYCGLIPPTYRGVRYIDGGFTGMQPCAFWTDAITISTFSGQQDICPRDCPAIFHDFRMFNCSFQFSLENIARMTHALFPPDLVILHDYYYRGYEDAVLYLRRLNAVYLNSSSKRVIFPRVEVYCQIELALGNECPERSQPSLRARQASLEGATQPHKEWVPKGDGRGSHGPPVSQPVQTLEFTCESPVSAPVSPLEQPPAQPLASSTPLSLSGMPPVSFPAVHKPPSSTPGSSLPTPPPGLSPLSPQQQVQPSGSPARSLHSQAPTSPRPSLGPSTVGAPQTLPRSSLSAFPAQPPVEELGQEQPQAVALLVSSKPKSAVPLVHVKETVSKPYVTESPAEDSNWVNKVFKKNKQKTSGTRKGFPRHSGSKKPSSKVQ

CCCCCCCCCCC[C@@H](C[C@@H]1OC(=O)[C@H]1CCCCCC)OC(=O)[C@H](CC(C)C)NC=O [Orlistat, reference compound]
PNPLA1/CGI-58-dependent ω-O-acylceramide formation (PNPLA1): inhibited

CCOC(=O)c1cccc(-c2ccc(OCC)cc2)c1 [compound 1]
IC50 (human ATGL): 35000 nM

CCOC(=O)c1cccc(-c2ccc(OCC)cc2)n1 [compound 2]
IC50 (human ATGL): 3000 nM

CCOc1ccc(-c2cccc(C(=O)OC(C)C)n2)cc1 [compound 3]
IC50 (human ATGL): 1800 nM

CCOc1ccc(-c2cc(C)cc(C(=O)OC(C)C)n2)cc1 [compound 4]
IC50 (human ATGL): 1600 ± 100 nM
